The values that follow come from PMC11109252, “Synthetic aporphine alkaloids are potential therapeutics for Leigh syndrome” (Scientific Reports, 2024).

Data set [1] relates to GDF-15. The data set can be described thus: GDF-15 levels in the cell supernatant (ELISA). The format is cell-based, human. Particulars: 24 h after co-administration with RSL3, compared to RSL3-only. As for the experimental part:
GDF-15 is a biomarker that is elevated in the blood of patients with mitochondrial diseases and is used for the diagnosis of mitochondrial diseases and determination of therapeutic efficacy[26],[36]. […] As previously reported, GDF-15 levels were measured by an enzyme-linked immuno sorbent assay (ELISA) using the Quantikin Human GDF-15 ELISA Kit (R&D Systems, Minneapolis, MN, USA). Samples were obtained from anti-RSL3-induced cell death assays with candidate compounds (D31, D55, and D40), and cell supernatants 24 h after reagent addition were used for the assay. Measured values were calculated with reference to internal standards and compared to GDF-15 values.

The test system of data set [2] is LS patient-derived skin fibroblasts. The data set can be described thus: Mitochondrial ATP production capacity (extracellular flux analyzer, OCR). Particulars: 100 nM compound. The format is cell-based, human. The text has this: The extracellular flux analyzer Seahorse XFe96 (Agilent Technologies, Santa Clara, CA, USA) was used to evaluate the mitochondrial function. The extracellular flux analyzer measures the oxygen consumption rate (OCR) in the mitochondria during ATP synthesis and can also evaluate the intracellular mitochondrial function. The endpoints were the basal OCR, ATP-linked OCR, maximal OCR, and spare capacity, which are key indicators of the mitochondrial function in assays using living cells. Each indicator was calculated by continuously adding ATP synthase inhibitors (oligomycin, rotenone and antimycin A) and deconjugating agents (carbonyl cyanide-p-trifluoromethoxyphenylhydrazone [FCCP]) during the measurement (Fig. 6). […] The OCR was measured over time by adding oligomycin (2 μM concentration) 20 min after drug addition, FCCP (2 μM concentration) 50 min later, and rotenone and antimycin A (0.5 μM concentration) 80 min later.

Data set [3] shares this test system. Description: Anti-BSO-induced cell death activity assay. Particulars: for EC50: viable cells 48 h after addition.
For data set [4] the test system is unchanged. Description: Anti-RSL3-induced cell death activity assay. Type of data set: cell-based. Particulars: Homo sapiens, Skin fibroblast, 24 h, read-out: Anti-RSL3-induced cell death effect EC50. The procedure: RSL3 is a glutathione peroxidase 4 (GPx4) inhibitor that specifically induces ferroptosis. Ferroptosis is an iron-dependent non-apoptotic type of cell death caused by lipid peroxidation.
After 24 h of incubation, the reagents were added to the RSL3 (−) derivative (−) and RSL3 ( +) derivative ( +) groups. […] The final concentration of RSL3 was 50–200 nM that would cause approximately 80–90% cell death after 24 h of incubation. The percentage of viable cells was measured 24 h after addition of each reagent.

Data set [5] relates to GDF-15. As to conditions: cited from earlier work.
For data set [6], the system named is LS patient-derived skin fibroblasts. Particulars: cited from earlier work.
The conditions of data set [7]: cited from earlier work.

“Also recorded” adds a separate entry of the source. Where only a bound is given, the exact number is not on record here.

Turning to `COc1ccc2c(c1O)-c1cccc3c1[C@@H](C2)N(C)CC3` [D31, (9R)-4-methoxy-10-methyl-10-azatetracyclo[7.7.1.0²,⁷.0¹³,¹⁷]heptadeca-1(17),2,4,6,13,15-hexaen-3-ol], in the data set on GDF-15 [1], the “GDF-15 elevation in cell supernatant” value is “suppressed GDF-15 elevation; also recorded: significant decrease”. Moreover, the “Enhancement of mitochondrial ATP production” value (“Enhancement” below) in data set [2] is on record as “showed any ability to enhance mitochondrial ATP production; also recorded: No significant enhancement”. Also, the “Anti-BSO cell death effect retained (same as apomorphine)” value in data set [3] (comparison of D29, D30, D31) was “retained its anti-BSO cell death effect; also recorded: the only compound with the same anti-BSO-induced cell death activity as apomorphine”. For the same compound, in data set [4], the EC50 worked out at 27 nM.
Take `CN1CCc2cccc3c2[C@H]1Cc1ccc(O)c(O)c1-3` [Apo, (9R)-10-methyl-10-azatetracyclo[7.7.1.0²,⁷.0¹³,¹⁷]heptadeca-1(17),2,4,6,13,15-hexaene-3,4-diol]: in the data set with GDF-15 [1], the “GDF-15 elevation in cell supernatant” value is “significant decrease”. In data set [2], the “Enhancement” value is given as “No significant enhancement”. Besides, the “GDF-15 elevation in culture supernatant” value in the data set on GDF-15 [5] is listed as “inhibits GDF-15 elevation”. In addition, the “ATP production in LS patient-derived skin fibroblasts” value in data set [6] is listed as “increase ATP production”. For the same compound, the “Concentrations in the brain versus plasma” value in data set [7] was “up to three-fold higher”.
As to `CCOc1ccc2c(c1O)-c1cccc3c1[C@@H](C2)N(C)CC3` [D55, (9R)-4-ethoxy-10-methyl-10-azatetracyclo[7.7.1.0²,⁷.0¹³,¹⁷]heptadeca-1(17),2,4,6,13,15-hexaen-3-ol], in the data set on GDF-15 [1], the “GDF-15 elevation in cell supernatant” value was “suppressed GDF-15 elevation; also recorded: significant decrease”. Besides, the “Enhancement” value in data set [2] is on record as “showed any ability to enhance mitochondrial ATP production; also recorded: No significant enhancement”. For the same compound, the EC50 in data set [4] was found to be 21 nM.
Consider `CCCOc1ccc2c(c1O)-c1cccc3c1[C@@H](C2)N(C)CC3` [D40, (9R)-10-methyl-4-propoxy-10-azatetracyclo[7.7.1.0²,⁷.0¹³,¹⁷]heptadeca-1(17),2,4,6,13,15-hexaen-3-ol], for which, in the data set with GDF-15 [1], the “GDF-15 elevation in cell supernatant” value was “suppressed GDF-15 elevation; also recorded: significant decrease”. For the same compound, the “Enhancement” value in data set [2] was “showed any ability to enhance mitochondrial ATP production; also recorded: No significant enhancement”. Besides, the EC50 in data set [3] (Homo sapiens, Skin fibroblast, 48 h, read-out: Anti-BSO-induced cell death effect EC50, co-added with BSO at a concentration giving 10%-20% cell viability) was less than 100 nM; in data set [3] (read-out: Anti-BSO-induced cell death effect EC50, co-added with BSO at a concentration giving 10%-20% cell viability), 55 nM; in data set [4], 231 nM.
